According to ChEMBL document CHEMBL1201862, “PubChem BioAssay data set” (2004):
Active and inactive are the calls of the source.

Columns and labels:
SUMO-activating enzyme [1] = target: T1, SUMO-activating enzyme (Homo sapiens, UniProt Q9UBT2); assay: SUMOylation inhibitor hit validation, confirmation, SUMOylation inhibitor project, biochemical, AlphaScreen (AID 2018); type: functional
SUMO-activating enzyme [2] = target: T1, SUMO-activating enzyme; assay: inhibitors of in vitro SUMOylation cascade, primary screen, biochemical, HTRF, uHTS (AID 2006); type: protein-complex assay
[3] = inhibitors of intracellular T. cruzi replication, confirmation, NIH3T3 host cells, beta-gal luminescence (AID 2044); type: functional, cell-based;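 note: intracellular parasites grown in NIH/3T3 mouse fibroblasts as host cells; luminescent beta-galactosidase reporter signal from transgenic T. cruzi replicating inside host cells; inhibitors lower the luminescence signal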
[4] = cytotoxicity toward NIH3T3 fibroblasts, dose response, counter-screen, cell-based, ATP luminescence, mouse fibroblasts (AID 2010); type: functional;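 note: cells exposed to compound for about 90 hours before reading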
[5] = Counterscreen for AddAB inhibitors: absorbance-based bacterial cell-based high throughput dose response assay for inhibitors of bacterial viability. [Related pubchem assays (depositor defined):AID435030, AID449728, AID449731, AID488942, AID488955, AID488956]; type: functional
[6] = target: T2, Intestinal-type alkaline phosphatase (Homo sapiens, UniProt P09923); assay: human intestinal alkaline phosphatase activators, dose response, biochemical, luminescence, uHTS hits (AID 463120); type: functional
T2 sequence (P09923 whole entry): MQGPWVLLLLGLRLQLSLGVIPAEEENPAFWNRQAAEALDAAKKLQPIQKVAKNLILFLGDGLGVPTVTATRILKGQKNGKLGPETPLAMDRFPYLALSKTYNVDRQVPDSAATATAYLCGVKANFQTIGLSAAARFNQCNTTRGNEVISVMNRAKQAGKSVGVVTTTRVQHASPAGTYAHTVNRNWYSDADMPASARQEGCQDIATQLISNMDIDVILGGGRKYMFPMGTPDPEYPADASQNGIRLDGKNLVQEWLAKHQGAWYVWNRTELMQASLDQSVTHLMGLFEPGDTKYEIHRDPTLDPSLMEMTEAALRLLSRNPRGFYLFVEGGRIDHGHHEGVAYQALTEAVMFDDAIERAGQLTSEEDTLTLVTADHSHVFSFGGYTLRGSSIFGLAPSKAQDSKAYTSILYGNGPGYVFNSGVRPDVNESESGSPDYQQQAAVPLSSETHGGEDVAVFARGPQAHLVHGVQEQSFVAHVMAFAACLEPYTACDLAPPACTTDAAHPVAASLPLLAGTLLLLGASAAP

Coagulation factor XII = target: T3, Coagulation factor XII (Homo sapiens, UniProt P00748); type: functional;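 note: activated factor XIIa alpha cleaving a fluorogenic AMC peptide substrate; inhibitor potency from loss of enzyme activity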
T3 sequence (P00748 whole entry): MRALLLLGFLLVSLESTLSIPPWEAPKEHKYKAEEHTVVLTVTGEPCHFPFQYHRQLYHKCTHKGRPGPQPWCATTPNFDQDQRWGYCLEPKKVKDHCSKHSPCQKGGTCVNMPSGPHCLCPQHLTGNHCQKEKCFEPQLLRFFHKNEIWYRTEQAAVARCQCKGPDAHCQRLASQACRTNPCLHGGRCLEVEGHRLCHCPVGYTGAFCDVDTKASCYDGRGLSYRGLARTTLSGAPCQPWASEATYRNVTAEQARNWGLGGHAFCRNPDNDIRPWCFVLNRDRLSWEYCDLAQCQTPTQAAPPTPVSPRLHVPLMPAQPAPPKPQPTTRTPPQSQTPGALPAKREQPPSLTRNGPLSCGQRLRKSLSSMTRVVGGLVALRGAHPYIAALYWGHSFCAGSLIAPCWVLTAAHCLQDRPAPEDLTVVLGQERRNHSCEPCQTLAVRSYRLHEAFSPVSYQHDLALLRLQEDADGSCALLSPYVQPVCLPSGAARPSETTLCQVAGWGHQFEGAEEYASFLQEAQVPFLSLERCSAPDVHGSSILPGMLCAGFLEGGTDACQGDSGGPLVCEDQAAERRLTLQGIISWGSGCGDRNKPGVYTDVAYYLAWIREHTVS

[7] = target: T2, Intestinal-type alkaline phosphatase; assay: Dose Response confirmation of uHTS hits from a small molecule inhibitors of human intestinal alkaline phosphatase via a luminescent assay. [Related pubchem assays (depositor defined):AID2544, AID2574]; type: functional
T-cell = assay: inhibitors of CD8+ T cell–vesicle binding, dose response, mouse 2C CD8+ T cells, flow cytometry (AID 485284); type: functional
Hexokinase HKDC1 = target: T4, Hexokinase HKDC1 (Homo sapiens, UniProt Q2TB90); assay: HKDC1 hexokinase activators, dose response, biochemical, W721R variant (AID 504730); type: functional
T4 sequence (Q2TB90 whole entry): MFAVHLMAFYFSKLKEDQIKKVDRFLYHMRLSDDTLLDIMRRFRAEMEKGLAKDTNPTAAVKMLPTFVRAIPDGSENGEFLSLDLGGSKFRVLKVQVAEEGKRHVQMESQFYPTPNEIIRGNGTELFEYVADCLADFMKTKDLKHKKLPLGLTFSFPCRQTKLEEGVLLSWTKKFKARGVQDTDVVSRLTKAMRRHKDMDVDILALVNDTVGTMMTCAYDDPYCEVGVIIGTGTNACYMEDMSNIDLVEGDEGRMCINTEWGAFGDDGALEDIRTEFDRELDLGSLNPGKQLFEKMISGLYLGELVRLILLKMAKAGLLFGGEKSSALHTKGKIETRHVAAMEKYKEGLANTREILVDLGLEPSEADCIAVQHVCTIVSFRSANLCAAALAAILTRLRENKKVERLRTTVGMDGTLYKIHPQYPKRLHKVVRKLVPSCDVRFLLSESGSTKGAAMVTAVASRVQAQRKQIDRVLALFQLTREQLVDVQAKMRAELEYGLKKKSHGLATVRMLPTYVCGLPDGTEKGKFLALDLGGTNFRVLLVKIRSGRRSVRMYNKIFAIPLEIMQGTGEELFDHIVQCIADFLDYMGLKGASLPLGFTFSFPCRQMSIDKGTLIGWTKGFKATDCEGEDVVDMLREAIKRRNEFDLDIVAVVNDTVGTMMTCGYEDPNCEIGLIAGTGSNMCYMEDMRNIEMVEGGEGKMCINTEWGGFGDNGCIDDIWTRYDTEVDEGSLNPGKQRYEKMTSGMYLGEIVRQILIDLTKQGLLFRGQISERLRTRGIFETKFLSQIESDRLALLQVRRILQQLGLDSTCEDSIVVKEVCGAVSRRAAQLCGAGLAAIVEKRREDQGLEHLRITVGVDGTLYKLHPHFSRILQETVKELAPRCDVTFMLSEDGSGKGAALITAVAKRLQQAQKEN

Hexokinase-1 = Hexokinase-1 (Homo sapiens, UniProt P19367); assay: hexokinase 1 activators, dose response, selectivity assay for HKDC1 activator project, biochemical (AID 504762); type: functional
Sequence of Hexokinase-1 (P19367 whole entry): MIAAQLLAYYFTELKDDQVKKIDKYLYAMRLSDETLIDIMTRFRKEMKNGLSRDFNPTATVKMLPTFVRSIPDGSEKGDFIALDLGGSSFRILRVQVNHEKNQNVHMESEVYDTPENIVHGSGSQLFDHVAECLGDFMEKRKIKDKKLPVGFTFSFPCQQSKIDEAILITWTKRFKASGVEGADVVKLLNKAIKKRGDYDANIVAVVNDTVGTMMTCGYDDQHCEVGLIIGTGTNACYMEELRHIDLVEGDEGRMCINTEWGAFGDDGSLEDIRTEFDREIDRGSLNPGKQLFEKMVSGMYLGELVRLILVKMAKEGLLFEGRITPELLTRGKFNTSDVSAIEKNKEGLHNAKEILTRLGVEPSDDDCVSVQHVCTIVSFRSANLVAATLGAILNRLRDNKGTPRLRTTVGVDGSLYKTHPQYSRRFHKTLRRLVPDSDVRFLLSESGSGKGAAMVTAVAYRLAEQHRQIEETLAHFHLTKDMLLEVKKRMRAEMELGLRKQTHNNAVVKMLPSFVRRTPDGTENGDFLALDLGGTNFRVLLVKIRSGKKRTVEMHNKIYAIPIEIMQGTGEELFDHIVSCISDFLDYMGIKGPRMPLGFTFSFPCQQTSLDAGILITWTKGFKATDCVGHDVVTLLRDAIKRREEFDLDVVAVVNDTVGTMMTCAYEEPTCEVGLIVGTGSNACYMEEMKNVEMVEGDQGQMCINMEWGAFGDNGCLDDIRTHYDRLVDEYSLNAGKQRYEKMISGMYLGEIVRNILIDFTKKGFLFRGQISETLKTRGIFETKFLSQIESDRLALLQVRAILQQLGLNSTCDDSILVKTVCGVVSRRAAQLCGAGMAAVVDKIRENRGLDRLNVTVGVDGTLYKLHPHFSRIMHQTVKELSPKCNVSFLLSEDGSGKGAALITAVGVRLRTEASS

INS1 = assay: beta cell apoptosis inhibitors, cytokine rescue, dose response, luminescence, retest (AID 449756); type: functional, cell-based; settings: Rattus norvegicus;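 note: cell death triggered by IL-1 beta plus TNF-alpha plus IFN-gamma mixture; protective hits raise ATP signal compared with cytokine alone wells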
Paired box protein Pax-8 = Paired box protein Pax-8 (Homo sapiens, UniProt Q06710); assay: inhibitors of PAX8-driven TPO luciferase reporter, dose response, RMG-I cells, cherry-pick (AID 687027); type: functional, cell-based;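 note: luciferase reporter driven by Pax8 target thyroperoxidase promoter measured by SteadyGlo luminescence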
Sequence of Paired box protein Pax-8 (Q06710 whole entry): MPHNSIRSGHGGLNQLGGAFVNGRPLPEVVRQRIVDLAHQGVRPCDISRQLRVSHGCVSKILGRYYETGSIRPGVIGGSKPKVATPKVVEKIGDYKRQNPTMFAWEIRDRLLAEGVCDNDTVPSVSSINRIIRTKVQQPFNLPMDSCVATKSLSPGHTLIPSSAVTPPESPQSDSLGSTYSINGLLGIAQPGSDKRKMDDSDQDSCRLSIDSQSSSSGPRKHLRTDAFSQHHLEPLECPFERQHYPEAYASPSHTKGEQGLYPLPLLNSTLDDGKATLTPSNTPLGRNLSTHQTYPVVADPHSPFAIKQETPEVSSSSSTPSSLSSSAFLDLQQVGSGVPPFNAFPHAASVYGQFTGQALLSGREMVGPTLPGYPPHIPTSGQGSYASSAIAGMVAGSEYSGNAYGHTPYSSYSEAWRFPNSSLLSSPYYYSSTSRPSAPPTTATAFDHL

T1 sequence (Q9UBE0 whole entry): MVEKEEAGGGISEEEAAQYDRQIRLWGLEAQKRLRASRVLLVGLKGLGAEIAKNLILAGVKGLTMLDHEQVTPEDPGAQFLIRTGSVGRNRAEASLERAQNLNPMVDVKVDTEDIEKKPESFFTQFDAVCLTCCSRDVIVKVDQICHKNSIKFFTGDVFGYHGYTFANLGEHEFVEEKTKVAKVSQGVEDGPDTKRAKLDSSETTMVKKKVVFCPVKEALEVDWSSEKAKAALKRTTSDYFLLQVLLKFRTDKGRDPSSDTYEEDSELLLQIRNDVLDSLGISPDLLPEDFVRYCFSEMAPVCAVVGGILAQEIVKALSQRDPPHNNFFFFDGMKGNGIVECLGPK
T1 sequence (Q9UBT2 whole entry): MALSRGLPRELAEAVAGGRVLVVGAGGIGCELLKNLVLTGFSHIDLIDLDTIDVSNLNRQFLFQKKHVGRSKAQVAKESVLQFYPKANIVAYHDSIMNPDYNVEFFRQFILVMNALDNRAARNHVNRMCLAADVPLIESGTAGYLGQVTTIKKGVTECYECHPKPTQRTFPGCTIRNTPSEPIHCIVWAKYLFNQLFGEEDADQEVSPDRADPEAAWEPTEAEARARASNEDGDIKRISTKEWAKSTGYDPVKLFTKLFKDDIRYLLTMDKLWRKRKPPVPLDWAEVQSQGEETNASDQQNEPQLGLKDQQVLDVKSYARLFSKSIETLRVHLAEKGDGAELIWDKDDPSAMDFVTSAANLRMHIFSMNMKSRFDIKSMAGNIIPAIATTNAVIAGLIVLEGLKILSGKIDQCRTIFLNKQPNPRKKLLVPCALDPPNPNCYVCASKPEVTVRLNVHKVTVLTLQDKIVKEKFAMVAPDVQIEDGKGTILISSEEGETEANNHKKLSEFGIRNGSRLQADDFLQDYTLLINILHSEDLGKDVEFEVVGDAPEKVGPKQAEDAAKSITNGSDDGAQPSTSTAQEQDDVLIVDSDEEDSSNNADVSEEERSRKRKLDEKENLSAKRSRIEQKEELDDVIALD

SMILES: O=C(/C=C/c1ccco1)NC(=S)Nc1ccc(O)c(-c2nc3ccccc3s2)c1
- IC50 (SUMO-activating enzyme [1]): 12.1 µM (active)
- IC50 (SUMO-activating enzyme [2]): 18 µM (active)

SMILES: O=C(NCc1cccnc1)c1ccc([N+](=O)[O-])o1
- EC50 [3]: < 0.1 µM (active)
- EC50 [4]: > 60 µM (inconclusive)
- IC50 [5]: > 39.5 µM (inactive)
- EC50 (cells): 0.137 µM (active)

SMILES: CC(C)CCNc1ncnc2c1nnn2Cc1ccccc1Cl
- EC50 [6]: > 100 µM (inactive)

SMILES: COc1cccc(NC(C)(C)c2nnnn2-c2c(C)cccc2C)c1
- IC50 (Coagulation factor XII): > 50 µM (inactive)

SMILES: COc1ccc(C2=Nc3cc(C)ccc3OC2)cc1
- IC50 [7]: > 100 µM (inactive)
- EC50 (T-cell): 8.65 µM (active)

SMILES: COc1ccc(C2=NN=C(Nc3cc(S(=O)(=O)N(C)C)ccc3C)SC2)c(OC)c1
- EC50 [3]: 3.57 µM (active)
- EC50 [4]: 5.85 µM (active)
- EC50 (Hexokinase HKDC1): 18.5 µM (active)
- EC50 (Hexokinase-1): 17.4 µM (active)
- AC50 (INS1): 5.48 µM (active)
- AC50 (Paired box protein Pax-8): 6.77 µM (active)
